Results: ChEMBL document CHEMBL3864159, “Variation of the aryl substituent on the piperazine ring within the 4-(piperazin-1-yl)-2,6-di(pyrrolidin-1-yl)pyrimidine scaffold unveils potent, non-competitive inhibitors of the inflammatory caspases” (Bioorg Med Chem Lett, 2016)
pIC50, pKi: −log10 of the molar value.

Key:
[1] = molecular target: T1, Caspase-1 (Homo sapiens, UniProt P29466); assay: Inhibition of human recombinant N-terminal His-tagged DTT-activated caspase-1 expressed in Escherichia coli using Ac-WEHD-AMC as substrate preincubated for 30 mins followed by substrate addition by fluorescence assay
T1 sequence (P29466 whole entry): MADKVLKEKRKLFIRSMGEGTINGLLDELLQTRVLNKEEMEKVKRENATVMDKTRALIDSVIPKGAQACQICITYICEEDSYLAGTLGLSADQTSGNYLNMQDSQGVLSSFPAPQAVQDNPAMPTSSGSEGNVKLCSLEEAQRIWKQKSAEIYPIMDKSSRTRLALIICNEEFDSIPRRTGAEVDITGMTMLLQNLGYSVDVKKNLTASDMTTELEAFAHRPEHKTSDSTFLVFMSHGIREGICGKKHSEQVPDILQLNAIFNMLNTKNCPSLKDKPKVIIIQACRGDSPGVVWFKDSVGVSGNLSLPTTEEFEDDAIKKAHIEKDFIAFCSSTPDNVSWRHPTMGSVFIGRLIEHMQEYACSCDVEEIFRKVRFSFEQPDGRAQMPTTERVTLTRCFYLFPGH

[2] = molecular target: T2, Caspase-4 (Homo sapiens, UniProt P49662); assay: Inhibition of human recombinant N-terminal His-tagged DTT-activated caspase-4 expressed in Escherichia coli using Ac-LEVD-AMC as substrate preincubated for 30 mins followed by substrate addition by fluorescence assay
T2 sequence (P49662 whole entry): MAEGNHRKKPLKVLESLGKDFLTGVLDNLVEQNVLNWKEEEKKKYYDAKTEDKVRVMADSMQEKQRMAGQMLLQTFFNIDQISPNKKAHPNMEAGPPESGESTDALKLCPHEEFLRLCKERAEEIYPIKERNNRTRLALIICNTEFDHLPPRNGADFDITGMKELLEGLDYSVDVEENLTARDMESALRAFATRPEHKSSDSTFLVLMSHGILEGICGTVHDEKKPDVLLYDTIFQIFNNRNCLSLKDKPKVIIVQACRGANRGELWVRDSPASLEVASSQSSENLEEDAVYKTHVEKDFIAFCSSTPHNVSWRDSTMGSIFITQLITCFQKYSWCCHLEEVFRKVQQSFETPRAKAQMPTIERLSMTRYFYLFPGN

[3] = molecular target: T3, Caspase-5 (Homo sapiens, UniProt P51878); assay: Inhibition of human recombinant DTT-activated caspase-5 expressed in Escherichia coli using Ac-WEHD-AMC as substrate preincubated for 30 mins followed by substrate addition by fluorescence assay
T3 sequence (P51878 whole entry): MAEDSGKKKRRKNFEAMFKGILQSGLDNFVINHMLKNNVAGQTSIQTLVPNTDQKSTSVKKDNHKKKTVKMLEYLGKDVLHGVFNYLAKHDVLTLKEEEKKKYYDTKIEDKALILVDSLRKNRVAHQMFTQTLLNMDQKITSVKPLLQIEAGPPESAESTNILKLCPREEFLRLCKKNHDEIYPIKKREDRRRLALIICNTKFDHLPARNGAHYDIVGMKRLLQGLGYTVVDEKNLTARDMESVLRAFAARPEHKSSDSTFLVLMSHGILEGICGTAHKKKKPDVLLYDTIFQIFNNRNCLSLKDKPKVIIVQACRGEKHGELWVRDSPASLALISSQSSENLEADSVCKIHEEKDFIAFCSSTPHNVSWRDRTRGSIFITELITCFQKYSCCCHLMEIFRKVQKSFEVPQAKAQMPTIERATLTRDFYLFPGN

[4] = molecular target: T1, Caspase-1; assay: Inhibition of human recombinant DTT-activated caspase-1 expressed in Escherichia coli using WEHD-AMC as substrate after 30 mins by fluorescence assay; conditions: read-out: Ki(app)
[5] = molecular target: T3, Caspase-5; assay: Inhibition of human recombinant DTT-activated caspase-5 expressed in Escherichia coli using Ac-WEHD-AMC as substrate preincubated for 15 mins followed by substrate addition by fluorescence assay
[6] = molecular target: T3, Caspase-5; assay: Inhibition of human recombinant DTT-activated caspase-5 expressed in Escherichia coli using Ac-WEHD-AMC as substrate preincubated for 45 mins followed by substrate addition by fluorescence assay

SMILES	pKi [1]	pIC50 [2]	pKi [2]	pIC50 [3]	pKi [3]	pIC50 [1]	pIC50 [5]	pIC50 [6]	pKi [4]
C[C@]12C=CC(=O)C=C1CC[C@@H]1C2=CC[C@]2(C)[C@@H](C(=O)CN3CCN(c4cc(N5CCCC5)nc(N5CCCC5)n4)CC3)CC[C@@H]12	7.30	6.04	6.47	6.04	6.68	–	–	–	7.30
c1cncc(CN2CCN(c3cc(N4CCCC4)nc(N4CCCC4)n3)CC2)c1	6.27	5.63	6.06	6.60	7.23	5.73	5.59	6.81	–
FC(F)(F)c1cc(CN2CCN(c3cc(N4CCCC4)nc(N4CCCC4)n3)CC2)cc(C(F)(F)F)c1	6.69	< 5.30	–	6.68	7.32	6.15	–	–	–
O=[N+]([O-])c1ccccc1CN1CCN(c2cc(N3CCCC3)nc(N3CCCC3)n2)CC1	6.64	6.14	6.57	6.98	7.62	6.10	–	–	–
c1ccc(CN2CCN(c3cc(N4CCCC4)nc(N4CCCC4)n3)CC2)cc1	6.70	< 5.30	–	6.75	7.39	6.15	–	–	–
c1cc(CN2CCN(c3cc(N4CCCC4)nc(N4CCCC4)n3)CC2)ccn1	6.52	5.97	6.41	6.84	7.47	5.97	–	–	–

The remaining molecules from weak to strong by pKi [1], led by results:

pKi [1]	pIC50 [2]	pKi [2]	pIC50 [3]	pKi [3]	pIC50 [1]	pIC50 [5]	pIC50 [6]	SMILES	pKi [4]
6.74	5.82	6.25	6.23	6.87	6.19	–	–	FC(F)(F)c1ccc(CN2CCN(c3cc(N4CCCC4)nc(N4CCCC4)n3)CC2)cc1	–
6.89	6.25	6.68	6.69	7.33	6.34	–	–	c1c(N2CCCC2)nc(N2CCCC2)nc1N1CCNCC1	–
6.89	6.24	6.67	6.37	7.00	6.35	–	–	O=[N+]([O-])c1ccc(CN2CCN(c3cc(N4CCCC4)nc(N4CCCC4)n3)CC2)cc1	–
7.12	6.13	6.56	6.32	6.95	6.58	–	–	COc1cccc(CN2CCN(c3cc(N4CCCC4)nc(N4CCCC4)n3)CC2)c1	–
7.23	6.49	6.92	6.91	7.55	6.69	–	–	O=C(c1ccccc1)c1ccc(CN2CCN(c3cc(N4CCCC4)nc(N4CCCC4)n3)CC2)cc1	–
7.31	6.40	6.83	6.83	7.47	6.76	–	–	COc1cc(CN2CCN(c3cc(N4CCCC4)nc(N4CCCC4)n3)CC2)cc(OC)c1	–
7.57	6.08	6.51	6.60	7.23	7.02	–	–	c1c(N2CCCC2)nc(N2CCCC2)nc1N1CCN(CC2CCCCC2)CC1	–
7.80	7.68	8.10	7.15	7.80	7.25	–	–	c1ccc(CCN2CCN(c3cc(N4CCCC4)nc(N4CCCC4)n3)CC2)cc1	–
